Source: US20230021483A1, “[…] […] METHOD AND CLASSIFICATION OF PHARMACEUTICAL COMPONENTS BY USING TRANSCRIPTOMES” (National Institutes of Biomedical Innovation, Health and …, priority 2016, published 2023)
Values joined by “and” are separate entries in the source; they are usually repeats but may differ in a detail not shown here. Identical values can stand only once.

Legend:
[1] = test system: preferentially upregulated genes in LV, SP, LN; assay: Z-score-based differential gene expression analysis (adjuvant group- or adjuvant-associated genes, 40 module mapping, TargetMine annotation); type: in vivo, C57BL/6 mice; conditions: liver (LV); gene group G1, module 20; individual mice x1-x3; route ID/IP/IN
Summary of the method: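 Gene groups for each organ were built from combined z-score cutoffs across adjuvants, ranging from z>1 to z>3. Scores came from fold changes standardized per gene over the whole organ data set, with the three replicate z-scores added per adjuvant; sums above 3 marked preferential expression.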

liver = conditions: mouse, in vivo, ip
Procedure: After 3 hours/6 hours, blood and liver were collected on day 1, day 2, day 3, and day 5. Hematoxylin and eosin staining was applied to the collected liver and histologically analyzed (FIG. 20).

heptanoyl-γ-D-glutamyl-(L)-meso-diaminopimelyl-(D)-alanine [FK565]
Z score of gene expression, Adar (probe 1425405_a_at) [1]: −0.4 (2×) and −0.5
Z score of gene expression, Adar (probe 1434268_at) [1]: −0.1
Z score of gene expression, Ddx58 (probe 1436562_at) [1]: −0.2 (2×) and −0.3
Z score of gene expression, Ddx58 (probe 1456890_at) [1]: −0.5 (2×) and −0.1
Z score of gene expression, Eif2ak2 (probe 1422005_at) [1]: 0.05 and 0.09 and −0.1
Z score of gene expression, G3bp2 (probe 1421323_a_at) [1]: −0.3 (2×) and −0.2
Z score of gene expression, Gm9706///Isg15 (probe 1431591_s_at) [1]: −0.1 (2×) and −0.2
Z score of gene expression, H2-T10///H2-T22///H2-T9 (probe 1449875_s_at) [1]: 0.21 and 0.04 and 0.29
Z score of gene expression, Ifih1 (probe 1426276_at) [1]: −0.3
Z score of gene expression, Ifit1 (probe 1449025_at) [1]: −0.4
Z score of gene expression, Ifit1 (probe 1450783_at) [1]: −0.4
Z score of gene expression, Irf7 (probe 1417244_a_at) [1]: −0.3 (2×) and −0.4
Z score of gene expression, Irgm1 (probe 1418825_at) [1]: 0.07 and 0.13 and 0.08
Z score of gene expression, Mndal (probe 1426906_at) [1]: −0.4 and −0.5 (2×)
Z score of gene expression, Pml (probe 1448757_at) [1]: −0.5 and −0.6 and −0.8
Z score of gene expression, Pml (probe 1456103_at) [1]: −0.5
Z score of gene expression, Rnf213 (probe 1455500_at) [1]: 0.02 and 0.06 and 0.03
Z score of gene expression, Rsad2 (probe 1436058_at) [1]: −0.4
Z score of gene expression, Shisa5 (probe 1423986_a_at) [1]: −0.1 and 0.01 and 0.18
Z score of gene expression, Shisa5 (probe 1437503_a_at) [1]: −0.2 and −0.3 and −0.1
Z score of gene expression, Stat1 (probe 1450033_a_at) [1]: −0.1 and −0 and 0
Z score of gene expression, Stat1 (probe 1450034_at) [1]: −0.1 (2×) and −0
Z score of gene expression, Tdrd7 (probe 1426716_at) [1]: −0.5 (2×) and −0.4
Z score of gene expression, Tor1aip2 (probe 1418115_s_at) [1]: −0.6 and −0.5 (2×)
Z score of gene expression, Tor1aip2 (probe 1418116_at) [1]: −0.7 (2×) and −0.9
Z score of gene expression, Tor1aip2 (probe 1435526_at) [1]: −0.8 and −0.9 (2×)
Z score of gene expression, Trim12a (probe 1437432_a_at) [1]: 0.1 and −0.1 and −0.2
Z score of gene expression, Uba7 (probe 1426970_a_at) [1]: −0.4 and −0.5 and −0.3
histological finding in liver (hematoxylin and eosin) (liver): liver damage
